# Measured values published in paper PMC10877925 (Cell Communication and Signaling : CCS, 2024).
# Key:
# PfSpdsyn = target: T1, PfSpdsyn (Plasmodium falciparum, UniProt Q8II73); assay: bio-layer interferometry; assay type: binding
# T1 construct: gene PF3D7_1129000; 29-residue N-terminal deletion, pET28a vector, E. coli BL21; immobilised on NTA biosensor for BLI
# T1 sequence (Q8II73 30-321): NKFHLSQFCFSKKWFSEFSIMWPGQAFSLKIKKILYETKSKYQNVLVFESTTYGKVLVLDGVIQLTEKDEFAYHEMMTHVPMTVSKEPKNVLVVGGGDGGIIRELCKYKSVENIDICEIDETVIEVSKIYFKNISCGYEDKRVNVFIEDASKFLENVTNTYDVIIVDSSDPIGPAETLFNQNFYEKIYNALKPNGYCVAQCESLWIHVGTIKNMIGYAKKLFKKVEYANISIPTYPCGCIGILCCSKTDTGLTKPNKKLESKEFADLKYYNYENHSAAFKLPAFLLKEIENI
# PfEGF1-α = target: T2, PfEGF1-α (Plasmodium falciparum, UniProt Q8I0P6); assay: bio-layer interferometry; assay type: binding
# T2 construct: gene PF3D7_1357000; recombinant, pET28a vector, E. coli BL21; immobilised on NTA biosensor for BLI
# T2 sequence (Q8I0P6 1-443): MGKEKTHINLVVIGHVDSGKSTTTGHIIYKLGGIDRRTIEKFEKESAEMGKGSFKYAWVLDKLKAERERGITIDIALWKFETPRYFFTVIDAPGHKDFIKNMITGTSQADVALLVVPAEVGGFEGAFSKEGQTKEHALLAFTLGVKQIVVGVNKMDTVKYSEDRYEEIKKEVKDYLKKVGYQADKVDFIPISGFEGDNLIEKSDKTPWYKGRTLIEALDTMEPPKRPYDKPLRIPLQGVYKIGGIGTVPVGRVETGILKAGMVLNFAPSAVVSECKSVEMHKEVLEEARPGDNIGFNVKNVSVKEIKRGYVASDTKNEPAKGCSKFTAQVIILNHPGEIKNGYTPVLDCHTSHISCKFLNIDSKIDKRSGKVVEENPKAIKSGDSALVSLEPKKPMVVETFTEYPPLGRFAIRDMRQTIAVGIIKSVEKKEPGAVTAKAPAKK
compound,measurement,setting,value
CC1=C(O)C(=O)C=C2C1=CC=C1[C@@]2(C)CC[C@@]2(C)[C@@H]3C[C@](C)(C(=O)O)CC[C@]3(C)CC[C@]12C [Celastrol],Kd,PfSpdsyn,67.4 µM
same,Kd,PfEGF1-α,243 µM
